Results published in US9138659B2, “Compositions, methods, and systems relating to controlled crystallization and/or nucleation of molecular species” (Massachusetts Institute of Technology, priority 2010, dated 2015).
Values joined by “and” are separate entries in the source; they are usually repeats but may differ in a detail not shown here. Identical values can stand only once.

How the values were obtained:
[1] = ROY nucleation induction time with PEGMDA microgels in ethanol; type: physicochemical; conditions: for τ(O): ROY orange needle form; for τ(R): ROY red form; for τ(Y): ROY yellow form
Experimental: (§1) In each experiment, crystallization of pure forms of either Y (yellow prisms), R (red prisms) or ON (orange needles) were observed from ethanol solution stochastically (FIG. 30), and their frequencies of occurrence were calculated by conducting 50-150 experiments in each case (FIG. 31). Nucleation induction time data from bulk solution or with PEG130DA microgels were fitted with the stretched exponential model and the average induction time thus regressed represents an average of all forms (Table 10), since the frequencies of occurrence for R and ON were too low for separate statistical analysis. […] In the multi-exponential model, each exponential decay process may be better represented with a stretched exponential, however, a simple exponential suffices in this case and decent fit was obtained with R^2 very close to unity (Table 11).
Nucleation induction time statistics of ROY with or without the presence of PEGDA microgels were determined. For each type of samples, 50-100 experiments were performed to obtain the induction time statistics wherein P is the probability for observing no crystallization event within time t is estimated from the fraction of samples haven't crystallized at this time point. Either stretched exponential model or multi-exponential models were employed to fit the data (see Tables 10 and 11).
Induction time distribution data were fitted with stretched exponentials via nonlinear least square regression: P=exp[−(t/τ)^β], where P is the probability to observe no crystallization event within time t. τ is an average of induction times for all Y, R, ON forms.
Induction time distribution data were fitted with superposition of two or three exponentials via nonlinear least square regression. Two-exponential fit was employed for PEG200DA and PEG700DA samples: P=a·exp[−t/τ(Y)]+(1−a)·exp[−t/τ(R)], with τ(R) an average of forms R and O for the PEG700DA sample. Three-exponential fit was used for PEG400DA and PEG575DA samples: P=a·exp[−t/τ(Y)]+b·exp[−t/τ(R)]+(1−a−b)·exp[−t/τ(O)], where Y, R, and O represent the yellow, red and orange needle forms respectively. *τ, an average induction time of Form R and ON, given the lack of data points to distinguish the two.

[2] = Preferred orientation of ROY crystals on PEGMDA polymer films by XRD; type: physicochemical
Text: The ROY-polymer interactions were probed via preferred crystal orientations on flat PEGMDA films. From the bulk solution, ROY crystallized in Form Y predominantly. In comparison, PEGMDA films templated nucleation of R, as well as Y, which is consistent with the observations with microgels. […] To verify this observation, the contribution from each crystal facet was quantified and listed the prominent ones in Table 12. […] Polymers with M=130, 200 g/mol favor R (111) and R (220). As M increases, percentage of R decreases and Y increases to become the dominant polymorph on M=575, 700 g/mol, which is contact with the polymer via Y (020) and/or (040) facet.
XRD patterns of ROY crystallized from bulk solution and on PEGDA films under the substantially similar conditions were obtained. Additional peaks observed from crystals templated by polymer films but not from bulk crystals were observed. Reference patterns were calculated from CSD using POWD-12++.
Analysis on the XRD data is carried out by normalizing the measured peak intensities Ip^i with the reference peak intensities Ibulk^i from the bulk sample, following the formula
[formula] where ηi is the percentage of crystals in orientation i, and p is short for polymer. Percentages are highlighted as bold for dominant orientations in each case.

[3] = Partition coefficients of CBZ and ROY in PEGMDA microgels from ethanol solutions; type: physicochemical; conditions: for Partition coefficient κ (solute mass fraction in gel solution / bulk): ethanol solution
[4] = ROY polymorph frequency of occurrence; type: physicochemical; conditions: vs bulk crystallization
Experimental: as §1
In FIG. 31: Polymorph frequency of occurrence in 12 mg/ml ROY-ethanol solution with or without microgels of various mesh sizes (left) and at higher solution concentrations, C0 (right). Frequency of occurrence is calculated as the percentage of samples crystallized in a particular form within 1440 min out of the total number of samples. The analysis for 12 mg/ml solution is carried out previously. In summary, addition of PEGDA microgels accelerated crystallization of all three forms, Y, R and ON.

[5] = ROY nucleation induction time with PEGMDA microgels in ethanol; type: physicochemical; conditions: ROY Form R; without microgels
[6] = ROY; at the chosen experimental condition; cited from earlier work
[7] = PEGMDA polymer film M 130 g/mol
[8] = PEGMDA polymer film M 200 g/mol
[9] = PEGMDA polymer film M 400 g/mol
[10] = PEGMDA polymer film M 575 g/mol
[11] = PEGMDA polymer film M 700 g/mol

For Cc1cc(C#N)c(Nc2ccccc2[N+](=O)[O-])s1 [ROY, 5-methyl-2-[(2-nitrophenyl)amino]-3-thiophenecarbonitrile], the “time within which all nucleation of Y occurred” value ([1]; ROY Form Y, PEG200DA microgels) was ≤ 100 min, the “τ(O)” value ([1]; PEG400DA microgels) was 3300 min and the “τ(O)” value ([1]; PEG575DA microgels) was 2900 min. For the same compound, the “τ(R)” value ([1]; PEG200DA microgels) was 9000 ± 6000 min, the “τ(R)” value ([1]; PEG400DA microgels) was 1600 ± 400 min and the “τ(R)” value ([1]; PEG575DA microgels) was 200 min and 200 ± 20 min. For the same compound, the “τ(Y)” value ([1]; PEG200DA microgels) was 26.0 ± 1.5 min, the “τ(Y)” value ([1]; PEG400DA microgels) was 22.0 ± 0.6 min and the “τ(Y)” value ([1]; PEG575DA microgels) was 10.0 ± 0.8 min. The “τ(Y)” value ([1]; PEG700DA microgels) was 12.0 ± 1.2 min, the “average nucleation induction time τ (average of Y, R, ON forms)” value ([1]; ROY, Bulk ethanol solution) was 10000 ± 2000 min and the “average nucleation induction time τ (average of Y, R, ON forms)” value ([1]; ROY, PEG130DA microgels) was 4000 ± 750 min. For the same compound, the “τ(R), an average induction time of Form R and ON” value ([1]; ROY, PEG700DA microgels) was 2600 ± 400 min, the “Percentage of ROY crystals in orientation R (111)” value (shortened to “Percentage of ROY crystals … (111)”) [2, 7] was 38.0% and the “Percentage of ROY crystals in orientation R (220)” value (from here on “Percentage of ROY crystals … (220)”) [2, 7] was 46.8%. For the same compound, the “Percentage of ROY crystals in orientation Y (020)” value (“Percentage of ROY crystals … (020)” for short) [2, 7] was 7.5%, the “Percentage of ROY crystals in orientation Y (040)” value (“Percentage of ROY crystals … (040)” for short) [2, 7] was 3.4% and the “Percentage of ROY crystals … (111)” value [2, 8] was 36.2%. For the same compound, the “Percentage of ROY crystals … (220)” value [2, 8] was 53.6%, the “Percentage of ROY crystals … (020)” value [2, 8] was 3.5% and the “Percentage of ROY crystals … (040)” value [2, 8] was 1.6%. The “Percentage of ROY crystals … (111)” value [2, 9] was 28.8%, the “Percentage of ROY crystals … (220)” value [2, 9] was 24.9% and the “Percentage of ROY crystals … (020)” value [2, 9] was 23.6%. The “Percentage of ROY crystals … (040)” value [2, 9] was 9.9%, the “Percentage of ROY crystals … (111)” value [2, 10] was 12.9% and the “Percentage of ROY crystals … (220)” value [2, 10] was 20.0%. The “Percentage of ROY crystals … (020)” value [2, 10] was 26.9%, the “Percentage of ROY crystals … (040)” value [2, 10] was 13.1% and the “Percentage of ROY crystals … (111)” value [2, 11] was 9.8%. For the same compound, the “Percentage of ROY crystals … (220)” value [2, 11] was 14.4%, the “Percentage of ROY crystals … (020)” value [2, 11] was 50.9% and the “Percentage of ROY crystals … (040)” value [2, 11] was 16.9%. For the same compound, the “ROY concentration in the gel phase relative to bulk solution” value ([3]; PEGMDA gels, ethanol) was 6-11 times, the “Partition coefficient κ (solute mass fraction in gel solution / bulk)” value ([3]; PEGMDA microgels M 130 g/mol) was 6.3 ± 0.2 and the “Partition coefficient κ (solute mass fraction in gel solution / bulk)” value ([3]; PEGMDA microgels M 200 g/mol) was 6.1 ± 0.9. For the same compound, the “Partition coefficient κ (solute mass fraction in gel solution / bulk)” value ([3]; PEGMDA microgels M 400 g/mol) was 11.0 ± 0.4, the “Partition coefficient κ (solute mass fraction in gel solution / bulk)” value ([3]; PEGMDA microgels M 575 g/mol) was 11.3 ± 1.6 and the “Partition coefficient κ (solute mass fraction in gel solution / bulk)” value ([3]; PEGMDA microgels M 700 g/mol) was 11.8 ± 1.1. The “improvement of Form R frequency of occurrence by polymer microgels” value [4] was “up to 20 times”, the “average induction time of R” value [5] was “over 10000 min” and the “relative stability of the three observed polymorphs” value [6] was “Y>ON>R”.
